The record followed here is EP1382597A2, “Steroid receptor modulator compounds and methods” (LIGAND PHARMACEUTICALS, INC., priority 1994, dated 1996).

In assay [1] the target is T1, AR (Homo sapiens, UniProt P10275).
T1 construct: expressed in transfected cells; host or cells: CV-1 cells, transient transfection
The assay can be described thus: Co-transfection assay, AR agonist activity. Conditions: CV-1 cells. The class given is cell-based.

The subject of a further assay is human AR. The assay can be described thus: AR whole cell binding assay (COS-1 cells). Conditions: whole COS-1 cells, competition with 1 nM 3H-DHT, three hours at 37°C.
The target of assay [2] is T1, AR. As to the kind of experiment: Co-transfection assay, AR antagonist activity. The class given is cell-based.
Another assay deals with T2, ER (Homo sapiens, UniProt P03372).
T2 construct: expressed in transfected cells; host or cells: CV-1 cells, transient transfection, with MTV-ERE5-LUC reporter
T2 sequence (P03372 whole entry): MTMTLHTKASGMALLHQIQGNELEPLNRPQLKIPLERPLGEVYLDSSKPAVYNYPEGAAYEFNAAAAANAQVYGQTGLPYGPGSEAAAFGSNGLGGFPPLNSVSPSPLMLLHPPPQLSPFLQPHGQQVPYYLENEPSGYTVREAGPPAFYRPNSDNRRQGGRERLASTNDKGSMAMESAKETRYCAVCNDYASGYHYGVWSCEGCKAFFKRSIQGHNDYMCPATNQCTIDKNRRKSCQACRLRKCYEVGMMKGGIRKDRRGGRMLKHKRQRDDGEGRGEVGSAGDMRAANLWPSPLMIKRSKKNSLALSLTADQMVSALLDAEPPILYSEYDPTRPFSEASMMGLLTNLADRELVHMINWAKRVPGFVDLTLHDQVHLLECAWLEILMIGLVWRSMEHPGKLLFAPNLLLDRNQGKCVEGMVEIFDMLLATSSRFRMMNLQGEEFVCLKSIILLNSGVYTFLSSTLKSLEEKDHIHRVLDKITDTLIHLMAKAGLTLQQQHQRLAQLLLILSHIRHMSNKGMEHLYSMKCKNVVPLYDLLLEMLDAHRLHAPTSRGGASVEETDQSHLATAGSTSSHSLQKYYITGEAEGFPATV
As to the kind of experiment: Co-transfection assay, ER antagonist activity. Format: cell-based.

The target of assay [3] is T3, human PR-B (Homo sapiens, UniProt P06401).
T3 construct: expressed in transfected cells; host or cells: CV-1 cells (African green monkey kidney fibroblasts), transient transfection
T3 sequence (P06401 1-933): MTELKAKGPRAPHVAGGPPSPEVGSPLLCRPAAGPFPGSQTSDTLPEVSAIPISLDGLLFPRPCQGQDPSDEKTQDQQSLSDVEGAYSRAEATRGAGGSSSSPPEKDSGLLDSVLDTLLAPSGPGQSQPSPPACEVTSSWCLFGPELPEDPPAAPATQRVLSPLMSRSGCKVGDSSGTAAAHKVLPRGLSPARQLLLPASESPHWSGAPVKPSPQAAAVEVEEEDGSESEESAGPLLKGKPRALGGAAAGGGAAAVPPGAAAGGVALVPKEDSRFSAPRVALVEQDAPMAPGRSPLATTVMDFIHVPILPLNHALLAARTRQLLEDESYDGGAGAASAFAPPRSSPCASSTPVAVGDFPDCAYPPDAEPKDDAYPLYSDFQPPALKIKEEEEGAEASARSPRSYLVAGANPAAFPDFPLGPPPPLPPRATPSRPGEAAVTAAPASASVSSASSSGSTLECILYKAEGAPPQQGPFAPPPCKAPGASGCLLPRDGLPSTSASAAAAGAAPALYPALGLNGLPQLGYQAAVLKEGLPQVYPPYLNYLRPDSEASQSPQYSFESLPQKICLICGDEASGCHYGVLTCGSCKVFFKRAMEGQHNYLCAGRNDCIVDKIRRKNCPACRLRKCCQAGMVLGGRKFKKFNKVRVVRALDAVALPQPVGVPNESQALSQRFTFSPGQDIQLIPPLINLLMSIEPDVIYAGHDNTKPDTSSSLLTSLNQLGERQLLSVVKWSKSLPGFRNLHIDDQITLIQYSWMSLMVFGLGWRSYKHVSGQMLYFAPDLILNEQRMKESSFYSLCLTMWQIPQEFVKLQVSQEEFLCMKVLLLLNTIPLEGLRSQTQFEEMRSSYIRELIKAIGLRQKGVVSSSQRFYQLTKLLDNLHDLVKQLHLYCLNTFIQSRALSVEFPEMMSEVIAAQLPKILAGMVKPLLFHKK
The assay can be described thus: Co-transfection assay, PR antagonist activity.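 For all read-outs here: monkey kidney fibroblasts co-transfected with receptor expression plasmid and hormone-responsive luciferase reporter, antagonism read as reduced luciferase signal.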 Format: cell-based. Conditions: for Emax: CV-1, read-out: PR Antagonist CV-1 Cells Efficacy (%).

Assay [4] addresses T3, human PR-B. The assay can be described thus: Co-transfection assay, PR agonist activity.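 For all read-outs here: CV-1 cells (African green monkey kidney) co-transfected with receptor plasmid and hormone-responsive firefly luciferase reporter, agonism read as compound-dependent rise in luciferase signal.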 Conditions: for Emax: CV-1, read-out: PR Agonist CV-1 Cells Efficacy (%). The class given is cell-based.
The target in another assay is T4, MR (Homo sapiens, UniProt P08235).
T4 construct: expressed in transfected cells; host or cells: CV-1 cells, transient transfection
T4 sequence (P08235 1-984): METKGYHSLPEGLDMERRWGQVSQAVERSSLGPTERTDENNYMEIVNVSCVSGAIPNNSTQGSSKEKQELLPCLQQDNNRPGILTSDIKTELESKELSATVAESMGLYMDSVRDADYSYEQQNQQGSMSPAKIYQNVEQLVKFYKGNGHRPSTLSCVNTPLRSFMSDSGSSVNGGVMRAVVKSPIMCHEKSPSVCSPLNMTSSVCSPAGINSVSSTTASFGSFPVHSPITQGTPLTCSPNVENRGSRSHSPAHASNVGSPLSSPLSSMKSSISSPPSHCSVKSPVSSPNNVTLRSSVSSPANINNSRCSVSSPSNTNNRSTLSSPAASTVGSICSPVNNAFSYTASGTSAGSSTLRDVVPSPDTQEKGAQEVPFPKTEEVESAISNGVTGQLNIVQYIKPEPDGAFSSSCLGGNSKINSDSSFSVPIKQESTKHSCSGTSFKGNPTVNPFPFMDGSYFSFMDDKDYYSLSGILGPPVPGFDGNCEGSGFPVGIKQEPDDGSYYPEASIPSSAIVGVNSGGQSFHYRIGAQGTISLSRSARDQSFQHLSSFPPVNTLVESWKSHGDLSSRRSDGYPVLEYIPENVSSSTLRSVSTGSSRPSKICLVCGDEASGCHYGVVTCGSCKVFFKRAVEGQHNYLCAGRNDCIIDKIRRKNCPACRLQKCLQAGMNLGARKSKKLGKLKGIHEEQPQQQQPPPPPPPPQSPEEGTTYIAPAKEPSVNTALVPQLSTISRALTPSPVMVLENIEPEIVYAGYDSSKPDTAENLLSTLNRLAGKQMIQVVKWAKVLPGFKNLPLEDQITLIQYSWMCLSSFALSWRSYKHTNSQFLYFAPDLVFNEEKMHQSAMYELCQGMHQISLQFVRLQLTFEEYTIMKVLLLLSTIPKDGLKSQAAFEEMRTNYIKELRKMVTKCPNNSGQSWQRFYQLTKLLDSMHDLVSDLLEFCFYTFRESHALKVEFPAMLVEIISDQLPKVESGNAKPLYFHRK
The assay can be described thus: Co-transfection assay, MR antagonist activity. The class given is cell-based.

The next assay concerns PR. As to the kind of experiment: Implantation assay (antiprogestin activity). Format: in vivo, mice (ICR strain). As to the method:
Mating was assumed to have taken place at 02.00 h, time 0.
Compound 150 was dissolved in sesame oil (50 mg/mL) and kept at room temperature before use. […] Control animals received an equivuivalent volume of the control vehicle, sesame oil, alone.
The animals were sacrificed, and autopsies were carried out at Day 8 of pregnancy, and numbers of implantation sites counted and recorded, and are shown in Table 7 below. Each group consisted of between 5 and 7 animals.

The target of the next assay is T5, GR (Homo sapiens, UniProt P04150).
T5 construct: expressed in transfected cells; host or cells: CV-1 cells, transient transfection
T5 sequence (P04150 1-777): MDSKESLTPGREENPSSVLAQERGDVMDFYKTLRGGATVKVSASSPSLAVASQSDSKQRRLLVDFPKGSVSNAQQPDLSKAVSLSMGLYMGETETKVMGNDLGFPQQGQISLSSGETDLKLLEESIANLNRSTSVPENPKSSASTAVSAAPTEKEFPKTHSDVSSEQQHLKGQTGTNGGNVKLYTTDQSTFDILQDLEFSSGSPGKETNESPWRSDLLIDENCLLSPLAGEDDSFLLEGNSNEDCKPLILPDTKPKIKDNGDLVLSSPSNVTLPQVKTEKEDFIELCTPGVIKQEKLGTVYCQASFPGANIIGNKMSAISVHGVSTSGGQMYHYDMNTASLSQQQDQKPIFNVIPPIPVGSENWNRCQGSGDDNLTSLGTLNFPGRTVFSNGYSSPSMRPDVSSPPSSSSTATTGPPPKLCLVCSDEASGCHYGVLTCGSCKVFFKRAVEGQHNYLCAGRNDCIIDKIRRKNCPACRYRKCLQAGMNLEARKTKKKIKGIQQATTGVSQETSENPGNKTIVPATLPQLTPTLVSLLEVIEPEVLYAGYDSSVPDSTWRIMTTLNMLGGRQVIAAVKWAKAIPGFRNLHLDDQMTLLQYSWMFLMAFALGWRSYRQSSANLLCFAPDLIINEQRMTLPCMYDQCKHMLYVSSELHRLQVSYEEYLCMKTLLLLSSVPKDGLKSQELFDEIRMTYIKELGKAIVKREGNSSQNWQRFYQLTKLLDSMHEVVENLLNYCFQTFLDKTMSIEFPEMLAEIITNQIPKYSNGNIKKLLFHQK
The assay can be described thus: Co-transfection assay, GR antagonist activity. The class given is cell-based.

For assay [5], the target named is T6, human progesterone receptor A form (PR-A) (Homo sapiens, UniProt P06401).
T6 sequence (P06401 1-933): T3 sequence (P06401 1-933)
The assay can be described thus: PR binding assay.

Like-named read-outs stand apart in the source and are kept apart here.

T1 sequence (P10275 whole entry): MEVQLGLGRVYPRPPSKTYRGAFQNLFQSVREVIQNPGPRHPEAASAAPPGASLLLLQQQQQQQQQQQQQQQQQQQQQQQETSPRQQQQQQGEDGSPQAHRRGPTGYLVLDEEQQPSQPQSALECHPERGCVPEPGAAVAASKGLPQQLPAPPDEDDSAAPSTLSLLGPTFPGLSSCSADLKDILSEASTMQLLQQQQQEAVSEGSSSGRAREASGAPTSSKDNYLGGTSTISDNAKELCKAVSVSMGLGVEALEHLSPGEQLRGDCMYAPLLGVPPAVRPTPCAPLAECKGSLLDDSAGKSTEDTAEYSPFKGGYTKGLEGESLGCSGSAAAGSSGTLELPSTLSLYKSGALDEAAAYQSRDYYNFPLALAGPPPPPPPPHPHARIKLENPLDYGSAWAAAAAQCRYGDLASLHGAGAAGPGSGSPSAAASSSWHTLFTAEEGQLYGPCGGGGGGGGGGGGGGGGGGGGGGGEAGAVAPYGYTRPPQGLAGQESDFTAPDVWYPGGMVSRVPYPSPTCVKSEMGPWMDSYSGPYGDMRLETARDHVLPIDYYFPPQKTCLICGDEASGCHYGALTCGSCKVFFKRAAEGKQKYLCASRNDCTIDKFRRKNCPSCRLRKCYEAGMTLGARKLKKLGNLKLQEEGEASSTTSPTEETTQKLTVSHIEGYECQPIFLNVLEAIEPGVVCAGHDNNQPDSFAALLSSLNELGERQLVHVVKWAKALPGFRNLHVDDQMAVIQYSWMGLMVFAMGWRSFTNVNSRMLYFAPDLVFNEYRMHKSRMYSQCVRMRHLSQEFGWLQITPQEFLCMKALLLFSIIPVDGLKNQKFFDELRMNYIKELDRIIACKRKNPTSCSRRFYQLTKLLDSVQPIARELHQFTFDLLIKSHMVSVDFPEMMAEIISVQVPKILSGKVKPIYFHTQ

Regarding “8-(4-Chlorobenzoyl)-5-trifluoromethyl-7-pyridono[5,6-e]indoline [Compound 420]”, the EC50 at AR [1] (agonist potency = EC50) turned out to be 2100 nM. In addition, the “AR Agonist CV-1 Cells Efficacy (%)” value at AR [1] (relative to reference agonist DHT) was determined as 40%. Further, the affinity with human AR, expressed as Ki, was 346 nM. The IC50 at AR [2] (CV-1 cells, antagonist potency = IC50, DHT at its EC50, read-out: AR Antagonist CV-1 Cells Potency) was determined as 32 nM. For the same molecule, at AR [2] (CV-1 cells, percent maximal inhibition, DHT at its EC50), the “AR Antagonist CV-1 Cells Efficacy (%)” value was 80%.

As for `CC1=CC(C)(C)Nc2ccc(-c3cccc(C#N)c3)cc21` [Compound 150, 6-(3-Cyanophenyl)-1,2-dihydro-2,2,4-trimethylquinoline], the IC50 at ER is above 10000 nM; against MR it was 1900 nM; against GR, 2700 nM; against AR [2] it was 140 nM. For the same molecule, the Emax at human PR-B [3] stood at 91%; on human PR-B [4] it was 24%. Moreover, in the assay with PR (5.0 mg/day oral, days 2 to 4 of pregnancy, mice), the “Percent Pregnancy Rate” value is listed as 0. For the same molecule, in the assay with PR (simultaneous injection of R5020 (promegestone) at 1.0 mg per day), the “effect on pregnancy rate with simultaneous PR agonist” value was “reversed to the control level”.

As to `CC1=CC(C)(C)Nc2ccc(-c3cccc(F)c3F)cc21` [Compound 152, 6-(2,3-Difluorophenyl)-1,2-dihydro-2,2,4-trimethylquinoline], on human PR-B [3], the IC50 is 130 nM and the Emax worked out at 82%. Besides, at human PR-B [4], the EC50 is above 10000 nM and the Emax was below 20%. Moreover, the affinity in [5], expressed as Ki, was 53 nM.

Regarding “(R/S-4l,5l)-3-Benzenzylidene-5-(4-chlorophenyl)-1,2,3,4-tetrahydro-2,2,4-trimethyl-5H-chromeno[3,4-f]quinoline [Compound 401]”, the IC50 at human PR-B [3] (CV-1 cells, antagonist potency = IC50, progesterone at its EC50, read-out: PR Antagonist CV-1 Cells Potency) is above 10000 nM. Besides, the “PR Antagonist CV-1 Cells Efficacy (%)” value at human PR-B [3] (CV-1 cells, percent maximal inhibition, progesterone at its EC50) was “na (na = not active (i.e. efficacy of <20 and potency of >10,000))”. At human PR-B [4] (CV-1 cells, agonist potency = EC50, read-out: PR Agonist CV-1 Cells Potency), the EC50 came to 600 nM. The “PR Agonist CV-1 Cells Efficacy (%)” value at human PR-B [4] (CV-1 cells, percent maximal response relative to reference agonist progesterone) is 43%. In [5] (competition with [3H] progesterone, baculovirus extract, 4°C, 16 hours, read-out: PR Binding Ki), the Ki was determined as 150 nM.

Broadly, the Ki is a dissociation constant, usually derived from enzyme kinetics or from competition with a known ligand.
